Laboratory results reported in ChEMBL document CHEMBL4002584, “Synthesis and antibacterial activities of novel pleuromutilin derivatives with a substituted pyrimidine moiety” (2017).
Values after ≈ are worked out from the molar mass of the structure shown.

Tests used:
Assay type in all cases: functional
Staphylococcus aureus [1] = experiment: Antibacterial activity against […] Staphylococcus aureus ATCC 33591 after 24 to 48 hrs by agar dilution method
Escherichia coli [2] = experiment: Antibacterial activity against Escherichia coli CMCC (B) 44102 after 24 to 48 hrs by agar dilution method
Staphylococcus aureus [3] = experiment: Antibacterial activity against […] Staphylococcus aureus ATCC 29213 at 160 ug/ml after 24 to 36 hrs by oxford cup assay; details: read-out: DIZ
Staphylococcus aureus [4] = experiment: Antibacterial activity against […] Staphylococcus aureus ATCC 33591 at 320 ug/ml after 24 to 36 hrs by oxford cup assay; details: read-out: DIZ
Escherichia coli [5] = experiment: Antibacterial activity against Escherichia coli CMCC (B) 44102 at 320 ug/ml after 24 to 36 hrs by oxford cup assay; details: read-out: DIZ
Staphylococcus aureus [6] = experiment: Antibacterial activity against […] Staphylococcus aureus ATCC 29213 after 24 to 48 hrs by agar dilution method
Staphylococcus aureus [7] = experiment: Antibacterial activity against […] Staphylococcus aureus ATCC 33591 at 160 ug/ml after 24 to 36 hrs by oxford cup assay; details: read-out: DIZ
Bacillus subtilis [8] = experiment: Antibacterial activity against Bacillus subtilis CMCC (B) 63501 at 160 ug/ml after 24 to 36 hrs by oxford cup assay; details: read-out: DIZ
Staphylococcus aureus [9] = experiment: Antibacterial activity against Staphylococcus aureus CMCC (B) 26003 at 320 ug/ml after 24 to 36 hrs by oxford cup assay; details: read-out: DIZ
Escherichia coli [10] = experiment: Antibacterial activity against Escherichia coli CMCC (B) 44102 at 160 ug/ml after 24 to 36 hrs by oxford cup assay; details: read-out: DIZ
Bacillus subtilis [11] = experiment: Antibacterial activity against Bacillus subtilis CMCC (B) 63501 after 24 to 48 hrs by agar dilution method
Staphylococcus aureus [12] = experiment: Antibacterial activity against Staphylococcus aureus CMCC (B) 26003 at 160 ug/ml after 24 to 36 hrs by oxford cup assay; details: read-out: DIZ
Staphylococcus aureus [13] = experiment: Antibacterial activity against Staphylococcus aureus CMCC (B) 26003 after 24 to 48 hrs by agar dilution method
Bacillus subtilis [14] = experiment: Antibacterial activity against Bacillus subtilis CMCC (B) 63501 at 320 ug/ml after 24 to 36 hrs by oxford cup assay; details: read-out: DIZ
Staphylococcus aureus [15] = experiment: Antibacterial activity against […] Staphylococcus aureus ATCC 29213 at 320 ug/ml after 24 to 36 hrs by oxford cup assay; details: read-out: DIZ
Staphylococcus aureus [16] = experiment: Antibacterial activity against […] Staphylococcus aureus ATCC 29213 in iv dosed Balb/c mouse systemic infection model assessed as increase in mouse survival after 7 days
Staphylococcus aureus [17] = experiment: Bactericidal activity against […] Staphylococcus aureus ATCC 29213 after 1 to 24 hrs by time-kill assay
Staphylococcus aureus [18] = experiment: Bactericidal activity against Staphylococcus aureus CMCC (B) 26003 assessed as bacterial level at MIC after 1 to 24 hrs by time-kill assay
Staphylococcus aureus [19] = experiment: Ratio of MIC for […] Staphylococcus aureus ATCC 29213 to MIC for Staphylococcus aureus CMCC (B) 26003
Staphylococcus aureus [20] = experiment: Bactericidal activity against Staphylococcus aureus CMCC (B) 26003 after 1 to 24 hrs by time-kill assay
Staphylococcus aureus [21] = experiment: Bactericidal activity against Staphylococcus aureus CMCC (B) 26003 at 6 times MIC after 4 hrs by time-kill assay relative to control

Row | SMILES | MIC (Staphylococcus aureus [1]) [µg/mL] | MIC (Escherichia coli [2]) [µg/mL] | zone of inhibition at 160 µg/mL (Staphylococcus aureus [3]) [mm] | zone of inhibition at 320 µg/mL (Staphylococcus aureus [4]) [mm] | zone of inhibition at 320 µg/mL (Escherichia coli [5]) [mm] | MIC (Staphylococcus aureus [6]) [µg/mL] | zone of inhibition at 160 µg/mL (Staphylococcus aureus [7]) [mm] | zone of inhibition at 160 µg/mL (Bacillus subtilis [8]) [mm] | zone of inhibition at 320 µg/mL (Staphylococcus aureus [9]) [mm] | zone of inhibition at 160 µg/mL (Escherichia coli [10]) [mm] | MIC (Bacillus subtilis [11]) [µg/mL] | zone of inhibition at 160 µg/mL (Staphylococcus aureus [12]) [mm] | MIC (Staphylococcus aureus [13]) [µg/mL] | zone of inhibition at 320 µg/mL (Bacillus subtilis [14]) [mm] | zone of inhibition at 320 µg/mL (Staphylococcus aureus [15]) [mm] | also measured
1 | C=C[C@]1(C)C[C@@H](OC(=O)CSc2nc(N)cc(NC(=O)CN3CCC(CCO)CC3)n2)[C@]2(C)[C@H](C)CC[C@]3(CCC(=O)[C@H]32)[C@@H](C)[C@@H]1O | 0.5 (≈ 0.744 µM) | 8 (≈ 11.9 µM) | 18.3 | 32.4 | 12.7 | 1 (≈ 1.49 µM) | 21.6 | 15.6 | 33.6 | 10.6 | 2 (≈ 2.98 µM) | 24 | 0.125 (≈ 0.186 µM) | 17.3 | 24.9 | –
2 | C=C[C@]1(C)C[C@@H](OC(=O)CSc2nc(N)cc(NC(=O)CN3CCC(O)CC3)n2)[C@]2(C)[C@H](C)CC[C@]3(CCC(=O)[C@H]32)[C@@H](C)[C@@H]1O | 0.25 (≈ 0.388 µM) | 4 (≈ 6.21 µM) | 21 | 34.4 | 11.4 | 0.25 (≈ 0.388 µM) | 23.5 | 13.6 | 30.6 | 8.54 | 2 (≈ 3.11 µM) | 21.1 | 0.125 (≈ 0.194 µM) | 16.1 | 30.5 | –
3 | C=C[C@]1(C)C[C@@H](OC(=O)CSc2nc(N)cc(N)n2)[C@]2(C)[C@H](C)CC[C@]3(CCC(=O)[C@H]32)[C@@H](C)[C@@H]1O | 0.0625 (≈ 0.124 µM) | 2 (≈ 3.98 µM) | 24.7 | 35.8 | 14.2 | 0.125 (≈ 0.249 µM) | 24.2 | 17.4 | 38.3 | 11.4 | 2 (≈ 3.98 µM) | 25.8 | 0.0625 (≈ 0.124 µM) | 21.9 | 33.5 | Activity (Staphylococcus aureus [16]): Dose-dependent effect; ED50 (Staphylococcus aureus [16]; ATCC 29213, iv, 168 h): 4.22 mg/kg; Activity (Staphylococcus aureus [17]): Dose-dependent effect; Activity (Staphylococcus aureus [18]): 3 - 4 log10CFU/ml; Ratio (Staphylococcus aureus [19]): 2; Activity (Staphylococcus aureus [20]): Dose-dependent effect; fold change (FC) (Staphylococcus aureus [21]): >6
4 | C=C[C@]1(C)C[C@@H](OC(=O)CSc2nc(N)cc(NC(=O)CN(C)C)n2)[C@]2(C)[C@H](C)CC[C@]3(CCC(=O)[C@H]32)[C@@H](C)[C@@H]1O | 0.5 (≈ 0.851 µM) | 8 (≈ 13.6 µM) | 18.9 | 22.4 | 12.1 | 1 (≈ 1.7 µM) | 18 | 13.9 | 34.2 | 9.55 | 4 (≈ 6.81 µM) | 21.8 | 0.25 (≈ 0.425 µM) | 17.5 | 25.4 | –
5 | C=C[C@]1(C)C[C@@H](OC(=O)CSc2nc(N)cc(NC(=O)CN3CC[C@H](O)C3)n2)[C@]2(C)[C@H](C)CC[C@]3(CCC(=O)[C@H]32)[C@@H](C)[C@@H]1O | 0.25 (≈ 0.397 µM) | 8 (≈ 12.7 µM) | 22.1 | 33.3 | 10.5 | 0.125 (≈ 0.198 µM) | 22.7 | 13.6 | 32.7 | 8.86 | 2 (≈ 3.18 µM) | 22.1 | 0.125 (≈ 0.198 µM) | 15.8 | 29.6 | –
